From the NIST ThermoML archive (doi:10.1021/je060313v)
± gives the expanded uncertainty stated by the source.

Key:
[1] = for speed of sound / mass density / viscosity: 101.33 kPa, Liquid; for speed of sound: Sing-around technique in a fixed-path interferometer; for mass density: Vibrating tube method; for surface tension liquid-gas: Drop weight; for viscosity: Capillary tube (Ostwald / Ubbelohde) method
[2] = refractive index (Na D-line) (dimensionless); conditions: 101.33 kPa, Liquid, Standard Abbe refractometry

Work on `CCCCn1cc[n+](C)c1.COS(=O)(=O)[O-]` [1-butyl-3-methylimidazolium methyl sulfate] yielded a speed of sound ([1]; 278.15 K) of 1708.3 ± 5.2 m/s, a mass density ([1]; 278.15 K) of 1225.84 ± 8.2 kg/m3 and a surface tension liquid-gas ([1]; 283.15 K) of 45.9 ± 1.2 mN/m. It also gave a speed of sound ([1]; 283.15 K) of 1695.8 ± 5.2 m/s, a mass density ([1]; 283.15 K) of 1222.44 ± 8.1 kg/m3 and a surface tension liquid-gas ([1]; 288.15 K) of 45 ± 1.1 mN/m. It also gave a speed of sound ([1]; 288.15 K) of 1683.4 ± 5.2 m/s, a mass density ([1]; 288.15 K) of 1219.03 ± 8.1 kg/m3 and a surface tension liquid-gas ([1]; 293.15 K) of 44.1 ± 1.1 mN/m. The viscosity ([1]; 293.15 K) was 288.99 ± 14 mPa·s, the speed of sound ([1]; 293.15 K) was 1670.9 ± 5.2 m/s and the mass density ([1]; 293.15 K) was 1215.62 ± 8 kg/m3. It also gave a surface tension liquid-gas ([1]; 298.15 K) of 43.3 ± 1.1 mN/m, a viscosity ([1]; 298.15 K) of 213.19 ± 9 mPa·s and a speed of sound ([1]; 298.15 K) of 1658.4 ± 5.2 m/s. It also gave a mass density ([1]; 298.15 K) of 1212.22 ± 8 kg/m3, a surface tension liquid-gas ([1]; 303.15 K) of 42.8 ± 1.1 mN/m and a viscosity ([1]; 303.15 K) of 160.93 ± 6 mPa·s. For the same compound, the speed of sound ([1]; 303.15 K) was 1646 ± 5.2 m/s, the mass density ([1]; 303.15 K) was 1208.81 ± 8 kg/m3 and the surface tension liquid-gas ([1]; 308.15 K) was 42.3 ± 1.1 mN/m. It also gave a viscosity ([1]; 308.15 K) of 123.73 ± 4.2 mPa·s, a speed of sound ([1]; 308.15 K) of 1633.5 ± 5.2 m/s and a mass density ([1]; 308.15 K) of 1205.41 ± 7.9 kg/m3. For the same compound, the surface tension liquid-gas ([1]; 313.15 K) was 41.8 ± 1.1 mN/m, the viscosity ([1]; 313.15 K) was 96.83 ± 3 mPa·s and the speed of sound ([1]; 313.15 K) was 1621.1 ± 5.2 m/s. It also gave a mass density ([1]; 313.15 K) of 1202.04 ± 7.9 kg/m3, a viscosity ([1]; 318.15 K) of 77.08 ± 2.2 mPa·s and a speed of sound ([1]; 318.15 K) of 1608.6 ± 5.2 m/s. The mass density ([1]; 318.15 K) was 1198.66 ± 7.8 kg/m3, the viscosity ([1]; 323.15 K) was 62.22 ± 1.6 mPa·s and the speed of sound ([1]; 323.15 K) was 1596.1 ± 5.2 m/s. It also gave a mass density ([1]; 323.15 K) of 1195.34 ± 7.8 kg/m3, a speed of sound ([1]; 328.15 K) of 1583.7 ± 5.2 m/s and a mass density ([1]; 328.15 K) of 1192.02 ± 7.7 kg/m3. It also gave a viscosity ([1]; 333.15 K) of 42.24 ± 1.1 mPa·s, a speed of sound ([1]; 333.15 K) of 1571.2 ± 5.2 m/s and a mass density ([1]; 333.15 K) of 1188.73 ± 7.7 kg/m3. For the same compound, the speed of sound ([1]; 338.15 K) was 1558.8 ± 5.2 m/s, the mass density ([1]; 338.15 K) was 1185.45 ± 7.6 kg/m3 and the viscosity ([1]; 343.15 K) was 29.99 ± 0.8 mPa·s. The speed of sound ([1]; 343.15 K) was 1546.3 ± 5.2 m/s, the mass density ([1]; 343.15 K) was 1182.19 ± 7.6 kg/m3 and the refractive index ([2]; 283.15 K) was 1.48351 ± 0.0011. The refractive index ([2]; 288.15 K) was 1.48213 ± 0.0011, the refractive index ([2]; 293.15 K) was 1.48076 ± 0.0011 and the refractive index ([2]; 298.15 K) was 1.47942 ± 0.0011. For the same compound, the refractive index ([2]; 303.15 K) was 1.47805 ± 0.0011, the refractive index ([2]; 308.15 K) was 1.47671 ± 0.0011 and the refractive index ([2]; 313.15 K) was 1.47536 ± 0.0011. It also gave a refractive index ([2]; 318.15 K) of 1.474 ± 0.0011, a refractive index ([2]; 323.15 K) of 1.47266 ± 0.0011 and a refractive index ([2]; 328.15 K) of 1.47132 ± 0.0011. For the same compound, the refractive index ([2]; 333.15 K) was 1.47 ± 0.0011, the refractive index ([2]; 338.15 K) was 1.46864 ± 0.0011 and the refractive index ([2]; 343.15 K) was 1.46725 ± 0.0011.
